Assay results: patent US10322133B2, “Synthetic lethal drug combination for treating renal cell carcinoma” (Commissariat a l'Energie Atomique et aux Energies …, priority 2015, dated 2019)
Blank lines part the entries; values can stand above or below the molecule they belong to.

What was measured:
786-O VHL^− cells [1] = experiment: 3D assay on Multicellular Tumor Spheroids (Propidium Iodide); type: cell-based, human; conditions: 5 μM, 48 h, P≤0.0001 Kruskal-Wallis
Procedure: For 3-D culture (spheroids), the spheroids were prepared in 96-wells U-bottom tissue culture plate with low evaporation Lid (Microtest™, Becton Dickinson Labware, San Jose, Calif.) coated with 20 mg/mL of poly-HEMA per well to allow the formation of spheroids. Renal cancer cells 786-O WT, 786-O pBABE and 786-O VHL (taken from exponentially growing cultures) were seeded at a density of […] in RPMI supplemented with 10% FCS. 90 μL (9×10^2 cells) of these cell suspensions were deposed in each well then tissue culture plates were incubated at 37° C. and 5% CO2 for 3 days before drug treatment for further 48 h.
Three days pre-formed spheroids were treated with the different drugs at indicated concentrations during 48 H. After that, Hoechst (200 ng/mL) and Propidium Iodide (1 μg/mL) were added as markers of cell nuclei and cell death respectively. Images of IP and Hoechst fluorescence were acquired at the CMBA platform using the automated microscope ArrayScanVTI (ThermoScientific). ArrayScanVTI is a fluorescent microscope which allows the rapid and fully automated acquisition of images of fixed or live cells in 96-well microplates at different magnifications. Dedicated softwares are used to automatically perform High Content image Analysis like spheroid area measurement, fluorescent intensity measurement of each staining and counting of the number of dead cells.

786-O VHL^− cells [2] = experiment: FACS cell cycle analysis (Propidium Iodide); type: cell-based, human; conditions: hypoxic conditions, 48 h
Procedure: FIG. 6: A) FACS analysis of 786-O VHL^− cells treated for 48 h with indicated compounds under hypoxic conditions and labeled with Propidium Iodide for cell cycle analysis.

786-O VHL^− cells [3] = experiment: Viability assay (PrestoBlue) / high-throughput drug-gene screening; type: cell-based, human; conditions: for sensitivity of cells to ATM inhibitor after shRNA-mediated knockdown of CK2α (cell viability): shCK2α vs shCTRL 786-O cells, 48 h
Procedure: Cytotoxicity was measured using PrestoBlue assay (Invitrogen, Carlsbad, Calif.). Cell lines were seeded in a 96-well microtiter plate at a concentration of 5×10^4 cells/mL. Cells were allowed to attach for 24 hrs at 37° C. and 5% CO2. The cells were exposed to the negative control DMSO or positive drug CX-4945 at 20 μM for 48 h or the other molecules at indicated concentrations. […] DMSO was used as a negative control and 20 μM CX-4945 as a positive control. Plates were further cultured for 48 hrs. Cells were labeled with vital Hoechst (33342) together with Prestoblue and the fluorescence reading was made through the Tecan's Infinite M100 reader. See Flow chart in FIG. 1. Raw data were first imported into the database of the home-made analysis software TAMIS, used for analysis. […] Finally, for each compound X/targeted-shRNA Y pair and assay, the activity percentage obtained with the compound X/Ctrl-shRNA was taken from the compound X/targeted-shRNA Y activity percentage in order to identify compound X/targeted-shRNA Y pair showing additive, or even synergistic, effect compared to compound X/Ctrl-shRNA pair.

ATM = target: T1, ATM (Homo sapiens, UniProt Q13315); experiment: Western blot of ATM phosphorylation in 786-O cells; type: cell-based; conditions: 786-O VHL^+/−, 1.5% O2, 5 μM, 48 h
T1 construct: endogenous in cells; host or cells: 786-O cells (VHL- and VHL+), cultured under 1.5% O2
Procedure: Blotted membranes were blocked during 1 h at room temperature with saturation buffer (1% BSA in TBST), and then incubated with primary antibody diluted in saturation buffer, during 1 h 30. Secondary antibodies were added for 1 hour.

T1 sequence (Q13315 whole entry): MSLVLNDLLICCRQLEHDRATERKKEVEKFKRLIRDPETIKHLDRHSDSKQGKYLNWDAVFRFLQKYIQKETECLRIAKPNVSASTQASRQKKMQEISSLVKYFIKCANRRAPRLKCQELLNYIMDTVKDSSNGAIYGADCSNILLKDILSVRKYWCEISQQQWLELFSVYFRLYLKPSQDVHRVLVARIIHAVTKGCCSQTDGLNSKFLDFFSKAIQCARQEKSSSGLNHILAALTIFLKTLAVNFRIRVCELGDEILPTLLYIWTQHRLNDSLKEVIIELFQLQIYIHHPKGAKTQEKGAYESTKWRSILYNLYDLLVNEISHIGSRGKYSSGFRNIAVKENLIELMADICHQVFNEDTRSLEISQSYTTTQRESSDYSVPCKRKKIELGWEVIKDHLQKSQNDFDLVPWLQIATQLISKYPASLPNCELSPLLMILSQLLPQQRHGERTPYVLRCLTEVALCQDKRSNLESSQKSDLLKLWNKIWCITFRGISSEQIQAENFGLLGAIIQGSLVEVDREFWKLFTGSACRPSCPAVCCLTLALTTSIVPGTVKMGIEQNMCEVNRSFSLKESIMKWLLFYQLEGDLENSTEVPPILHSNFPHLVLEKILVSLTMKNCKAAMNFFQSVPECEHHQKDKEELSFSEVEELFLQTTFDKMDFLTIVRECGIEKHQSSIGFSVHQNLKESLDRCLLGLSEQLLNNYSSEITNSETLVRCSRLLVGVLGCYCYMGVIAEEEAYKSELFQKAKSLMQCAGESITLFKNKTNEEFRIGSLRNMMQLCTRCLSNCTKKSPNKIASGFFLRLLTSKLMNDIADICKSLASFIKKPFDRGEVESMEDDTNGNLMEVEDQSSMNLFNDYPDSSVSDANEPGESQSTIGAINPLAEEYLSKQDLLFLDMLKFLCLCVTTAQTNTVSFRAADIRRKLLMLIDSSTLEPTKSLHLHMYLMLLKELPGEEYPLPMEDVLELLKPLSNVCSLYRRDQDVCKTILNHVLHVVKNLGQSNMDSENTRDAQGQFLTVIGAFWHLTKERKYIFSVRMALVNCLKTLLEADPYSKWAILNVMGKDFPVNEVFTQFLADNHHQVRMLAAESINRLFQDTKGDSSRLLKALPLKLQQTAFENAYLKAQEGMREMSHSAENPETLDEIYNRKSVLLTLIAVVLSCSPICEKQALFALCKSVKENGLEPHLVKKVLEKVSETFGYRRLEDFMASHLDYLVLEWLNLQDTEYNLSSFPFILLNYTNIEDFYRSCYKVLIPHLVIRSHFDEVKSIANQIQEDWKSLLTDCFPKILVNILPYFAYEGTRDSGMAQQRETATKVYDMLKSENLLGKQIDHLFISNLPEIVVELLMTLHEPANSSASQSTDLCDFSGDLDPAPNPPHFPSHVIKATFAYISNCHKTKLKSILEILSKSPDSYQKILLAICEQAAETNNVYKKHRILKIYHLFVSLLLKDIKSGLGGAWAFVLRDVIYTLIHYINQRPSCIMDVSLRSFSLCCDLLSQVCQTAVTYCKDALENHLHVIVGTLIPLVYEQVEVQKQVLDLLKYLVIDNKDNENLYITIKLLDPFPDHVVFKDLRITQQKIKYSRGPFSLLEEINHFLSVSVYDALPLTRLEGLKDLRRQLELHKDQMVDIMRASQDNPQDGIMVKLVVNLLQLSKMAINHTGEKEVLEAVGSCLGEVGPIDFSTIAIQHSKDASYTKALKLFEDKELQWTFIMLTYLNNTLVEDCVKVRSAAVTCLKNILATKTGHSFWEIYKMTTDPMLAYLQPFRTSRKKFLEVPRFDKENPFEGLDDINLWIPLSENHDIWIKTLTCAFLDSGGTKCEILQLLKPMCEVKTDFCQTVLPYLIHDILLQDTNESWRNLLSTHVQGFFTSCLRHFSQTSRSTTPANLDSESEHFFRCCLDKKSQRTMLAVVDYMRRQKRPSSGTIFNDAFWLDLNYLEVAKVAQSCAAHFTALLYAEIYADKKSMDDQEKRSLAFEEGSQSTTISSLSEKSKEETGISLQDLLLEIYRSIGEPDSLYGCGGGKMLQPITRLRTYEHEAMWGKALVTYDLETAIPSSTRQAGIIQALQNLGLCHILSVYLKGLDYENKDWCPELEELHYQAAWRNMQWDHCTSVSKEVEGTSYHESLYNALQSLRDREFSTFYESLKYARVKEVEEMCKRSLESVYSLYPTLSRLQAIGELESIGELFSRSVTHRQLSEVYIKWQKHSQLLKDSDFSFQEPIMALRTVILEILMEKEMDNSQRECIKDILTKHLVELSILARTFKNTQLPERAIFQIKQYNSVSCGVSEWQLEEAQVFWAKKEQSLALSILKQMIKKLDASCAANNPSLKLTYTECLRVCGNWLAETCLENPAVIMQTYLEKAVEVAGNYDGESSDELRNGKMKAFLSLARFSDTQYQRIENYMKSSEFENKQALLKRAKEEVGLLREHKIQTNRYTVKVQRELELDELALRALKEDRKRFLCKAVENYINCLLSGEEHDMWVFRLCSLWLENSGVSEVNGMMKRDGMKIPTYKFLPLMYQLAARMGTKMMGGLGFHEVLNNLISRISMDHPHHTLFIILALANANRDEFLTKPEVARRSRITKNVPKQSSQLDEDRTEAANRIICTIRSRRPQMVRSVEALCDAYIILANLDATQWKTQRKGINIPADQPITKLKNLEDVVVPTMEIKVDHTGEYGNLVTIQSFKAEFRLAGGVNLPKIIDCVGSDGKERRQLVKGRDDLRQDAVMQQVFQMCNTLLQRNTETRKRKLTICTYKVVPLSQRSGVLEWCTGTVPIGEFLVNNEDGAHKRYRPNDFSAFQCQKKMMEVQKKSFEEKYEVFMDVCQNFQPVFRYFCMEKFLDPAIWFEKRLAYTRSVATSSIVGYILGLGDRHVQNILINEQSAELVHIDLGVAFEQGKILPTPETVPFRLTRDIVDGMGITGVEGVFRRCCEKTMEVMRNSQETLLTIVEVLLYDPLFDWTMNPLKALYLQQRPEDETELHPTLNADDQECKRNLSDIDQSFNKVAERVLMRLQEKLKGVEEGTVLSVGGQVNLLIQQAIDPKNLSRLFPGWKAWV

Compound: O=C(O)c1ccc2c(c1)nc(Nc1cccc(Cl)c1)c1ccncc12 [CX-4945, 5-(3-chlorophenylamino)benzo[c][2,6]naphthyridine-8-carboxylic acid]
- cell death in shATM MTS versus vehicle (786-O VHL^− cells [1]): Significant difference
- effect on G1 phase (786-O VHL^− cells [2]): without effect

- inhibition of ATM (phosphorylation of P-ATM Ser1981) (ATM): clearly inhibited
Compound: C[C@@H]1CN(CC(=O)Nc2ccc3c(c2)Cc2cccc(-c4cc(=O)cc(N5CCOCC5)o4)c2S3)C[C@H](C)O1 [KU-60019, 2-((2S,6R)-2,6-dimethylmorpholino)-N-(5-(6-morpholino-4-oxo-4H-pyran-2-yl)-9H-thioxanthen-2-yl)acetamide]
- efficiency of ATM inhibitor compared with KU-55933 (786-O VHL^− cells [3]; 786-O cell viability, with CK2 inhibitors (FIG. 2C)): significantly more efficient
- sensitivity of cells to ATM inhibitor after shRNA-mediated knockdown of CK2α (cell viability) (786-O VHL^− cells [3]): enhanced the sensitivity
- cell death in shCK2α MTS versus vehicle (DMSO) (786-O VHL^− cells [1]): Significant difference

Compound: O=c1cc(-c2cccc3c2Sc2ccccc2S3)oc(N2CCOCC2)c1 [KU-55933, 2-Morpholin-4-yl-6-thianthren-1-yl-pyran-4-one]
- sensitivity of cells to ATM inhibitor after shRNA-mediated knockdown of CK2α (cell viability) (786-O VHL^− cells [3]): enhanced the sensitivity
